Assay results from article PMC7502707, “Characterization and validation of a preventative therapy for hypertrophic cardiomyopathy in a murine model of the disease” (Proceedings of the National Academy of Sciences of the …, 2020).

What was measured:
[1] = tested on: wt and cTnI-G203S cardiac myocytes; design: method as in PMID 19166857, PMID 24969422, PMID 24958783; conditions: cited from earlier work
[2] = tested on: myocytes isolated from wt and cTnI-G203S mice; experiment: Flavoprotein oxidation in myocytes isolated from treated mice; assay type: in vivo, mouse; conditions: myocytes from precardiomyopathic cTnI-G203S mice treated 10 μM i.p. 3×/wk/5 wk from 20 wk
Protocol: Male mice expressing the human cTnI gene encoding the human disease-causing mutation cTnI-G203S were used for all studies. […] Male mice expressing the normal human cTnI gene were used as controls (wt). Ten-week-old mice were used for in vitro studies. For in vivo studies, 20- or 30-wk-old cTnI-G203S mice were treated with 10 μM AID-TAT or AID[S]-TAT via intraperitoneal injection, 3×/wk/5 wk. In vivo dose of AID-TAT or AID[S]-TAT (10 μM) was calculated based on blood volume, equating to ∼2 mg/kg total BW. Male animal models were used to eliminate potential differences in responses due to sex. Experiments were performed in a total of 21 wt (AID[S]-TAT), 6 wt (AID-TAT), 15 cTnI-G203S (AID[S]-TAT), and 26 cTnI-G203S (AID-TAT) mice. All animals were randomly assigned to treatment groups.
Fluorescence was measured on a Hamamatsu Orca ER digital camera attached to an inverted Nikon TE2000-U microscope. […]
Additionally, individual 580 nm and 535 nm wavelength signals were assessed in each experiment to determine whether the fluorescent indicator was accurately measuring m. […] Ratiometric JC-1 or flavoprotein fluorescent signals were quantified by manually tracing myocytes and subtracting an equivalent background region […]

[3] = tested on: cardiac L-type calcium channel (ICa-L); design: method as in PMID 19166857, PMID 24969422, PMID 24958783; conditions: wt myocytes; cited from earlier work

Sequence: QQLEEDLKGYLDWITQAE [AID-TAT]
- elevated Ψm in response to activation of ICa-L [1]: attenuates elevated Ψm
- increase in flavoprotein oxidation following BayK(−) [2]: reduced this response to a level comparable to that observed in wt myocytes
- inactivation rate of the cardiac ICa-L [3]: slows the inactivation rate
